The text below walks through data of patent US20250235403A1, “COMPOSITIONS AND METHODS OF THE DELIVERY OF ACTIVE AGENTS INCLUDING NUCLEIC ACIDS” (Ohio State Innovation Foundation, priority 2021, published 2025).

The test system of one data set is MC38 cells. The experiment in a line: In vitro gene regulation by R848 NE, IVM NE, R848-IVM NE. Format: cell-based, murine. As to conditions: 8 μM, 24 hours.
Data set [1] can be described thus: Saturated solubility study. To be noted: in squalene-based NE compared with PBS solvent. Type of data set: physicochemical. Here is the method: In the saturated solubility study, R848 or IVM were dissolved in PBS or formulated in NE at 2 mg/ml and incubated at room temperature for 24 hours. Insoluble solid drugs were pelleted down by centrifugation. Supernatants were collected for concentration analysis. R848 concentrations were quantified by UV-Vis spectrometry at 320 nm using a NanoDrop 2000 spectrophotometer. IVM concentrations were quantified by high-performance liquid chromatography (HPLC) using an isocratic mobile phase composed of water/methanol/acetonitrile (8:36:56, v/v/v), an C18 column (Kromasil 150-C-18, 4.6×150 mm), and PDA detection at 230 nm.

Data set [2] in a line: Evaluation of squalene as a fusogenic oil (OD500/OD600 of anionic nanoemulsions). Type of data set: physicochemical. To be noted: oil/DOPC/CHEMS nanoemulsions; versus medium-chain and long-chain triglyceride. The method, then: To compare the fusogenicities of different oils, simple anionic nanoemulsions were prepared. The compositions evaluated were: oil/DOPC/CHEMS (30:40:40 mole/mole). Oil was selected from squalene, medium-chain triglyceride (MCT) from Abitec (Captex 300), long-chain triglyceride (LCT, soybean oil from Sigma-Aldrich). DOPC: dioleoylphosphatidylcholine, CHEMS: cholesterol hemisuccinate. The various formulations were prepared at pH 8.0 in PBS and then diluted into various buffers with different pH values and incubated for 5 min at room temperature prior to OD measurement. OD500 and OD600 were measured to indicate particle size, with larger particle size indicating increased fusogenicity.

Procedure for MC38 cells: MC38 cells were seeded at 3×10^5 cells/well in 6-well plates 24 hours before treatments. […] R848 and IVM were both treated at 8 μM, either as free drug solution or in squalene NE. Total RNA was extracted using TRI reagent (Zymo Research) per manufacturer protocol. cDNA was prepared by high-capacity cDNA reverse transcription kit (Invitrogen, Waltham, MA, USA), and real-time qPCR (RT-qPCR) was done using SsoAdvanced™ Universal SYBRR Green Supermix (Bio-Rad Laboratories, Hercules, CA) on a QuantStudio 7 Flex Real-time PCR System. RT-qPCR primers for murine Calreticulin, Hmgb1, Lc3b, and Actb were purchased from Sigma-Aldrich. Actb was selected as the housekeeping gene control. The relative amount of RNA level was calculated and compared according to the 2−ΔΔCt method.

In the case of `CC[C@H](C)[C@H]1O[C@]2(CC[C@@H]1C)C[C@@H]1C[C@@H](C/C=C(\C)[C@@H](O[C@H]3C[C@H](OC)[C@@H](O[C@H]4C[C@H](OC)[C@@H](O)[C@H](C)O4)[C@H](C)O3)[C@@H](C)/C=C/C=C3\CO[C@@H]4[C@H](O)C(C)=C[C@@H](C(=O)O1)[C@]34O)O2` [IVM, Ivermectin], the “Calreticulin mRNA level” value in the data set on MC38 cells is “did not show significant Calreticulin regulation”. This compound showed an increase of solubility in data set [1] of 100 fold.
For `CC(C)=CCC/C(C)=C/CC/C(C)=C/CC/C=C(\C)CC/C=C(\C)CCC=C(C)C` [squalene], the fusogenicity result in data set [2] is “improved fusogenicity”.
Turning to `CCOCc1nc2c(N)nc3ccccc3c2n1CC(C)(C)O` [R848, Resiquimod], the increase of solubility in data set [1] turned out to be 2 fold.
